Measurements published in the supplement of paper PMC10307832.

compound: O=c1ncccn1[C@@H]1O[C@H](CO)[C@@H](O)[C@H]1O [Zebularine] + Nc1nc2[nH]cc(CCc3ccc(C(=O)N[C@@H](CCC(=O)O)C(=O)O)cc3)c2c(=O)[nH]1 [Pemetrexed] (partner 0.2 µM); test: relative viability (nuclei count vs DMSO), 5 days (fraction); higher = more cells survive; details: first compound 100 µM
In short: (§1)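 Relative viability equals treated-well nuclei counts divided by vehicle-well nuclei counts. Counts came from 4× images of lung cancer cell lines grown in 1536-well plates for 5 days after pin-tool dosing on the day after seeding. Dosing used one drug alone or a fixed anchor-drug dose plus five library-drug doses (not always all listed) in √10 steps, and values are medians of duplicate plates.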

Row | Cell Line | relative viability
1 | NCI-H23 | 0.494
2 | NCI-H647 | 0.115

compound: O=c1ncccn1[C@@H]1O[C@H](CO)[C@@H](O)[C@H]1O [Zebularine] + COc1cc2c(Oc3ccc(NC(=O)C4(C(=O)Nc5ccc(F)cc5)CC4)cc3F)ccnc2cc1OCCCN1CCOCC1 [Foretinib] (partner 0.25 µM); test: as above; details: first compound 1 µM
In short: as §1

Row | Cell Line | relative viability
3 | COR-L23 | 1.11
4 | COR-L 105 | 1.02
5 | LOU-NH91 | 0.95
6 | ChaGo-K-1 | 0.939
7 | NCI-H2170 | 0.983
8 | NCI-H2405 | 1.04
9 | HOP-62 | 1.28
10 | LU99A | 0.884
11 | BEN | 0.648
12 | HARA | 0.979
13 | HCC-78 | 0.523
14 | NCI-H322M | 0.914
15 | LCLC-97TM1 | 0.929
16 | NCI-H2009 | 1.28
17 | A-427 | 1.22
18 | NCI-H441 | 1.72
19 | NCI-H1734 | 0.931
20 | NCI-H460 | 1.08
21 | NCI-H2347 | 1.02
22 | SK-LU-1 | 0.884
23 | NCI-H1395 | 0.852
24 | 201T | 1.16
25 | NCI-H1915 | 1.3
26 | HCC-827 | 1.15
27 | LXF-289 | 1.09
28 | NCI-H23 | 1.09
29 | NCI-H647 | 1.03

same assay, conditions: first compound 3.162 µM

Row | Cell Line | relative viability
30 | COR-L23 | 0.98
31 | COR-L 105 | 0.938
32 | LOU-NH91 | 0.888
33 | ChaGo-K-1 | 0.824
34 | NCI-H2170 | 1.02
35 | NCI-H2405 | 1.05
36 | HOP-62 | 1.15
37 | LU99A | 0.807
38 | BEN | 0.44
39 | HCC-78 | 0.547
40 | NCI-H322M | 0.945
41 | LCLC-97TM1 | 1
42 | NCI-H2009 | 1.25
43 | A-427 | 0.965
44 | NCI-H441 | 1.03
45 | NCI-H1734 | 0.864
46 | NCI-H460 | 0.948
47 | NCI-H2347 | 0.856
48 | SK-LU-1 | 0.8
49 | NCI-H1395 | 0.961
50 | 201T | 1.14
51 | NCI-H1915 | 1.11
52 | HCC-827 | 1.07
53 | LXF-289 | 0.984
54 | NCI-H23 | 1.1
55 | NCI-H647 | 0.979

same assay, conditions: first compound 10 µM

Row | Cell Line | relative viability
56 | COR-L23 | 0.621
57 | COR-L 105 | 0.755
58 | LOU-NH91 | 0.866
59 | ChaGo-K-1 | 0.337
60 | NCI-H2170 | 0.909
61 | NCI-H2405 | 1.07
62 | HOP-62 | 0.335
63 | LU99A | 0.577
64 | BEN | 0.341
65 | HCC-78 | 0.53
66 | NCI-H322M | 0.645
67 | LCLC-97TM1 | 0.704
68 | NCI-H2009 | 0.919
69 | A-427 | 0.579
70 | NCI-H441 | 0.684
71 | NCI-H1734 | 0.631
72 | NCI-H460 | 0.689
73 | NCI-H2347 | 0.881
74 | SK-LU-1 | 0.47
75 | NCI-H1395 | 0.772
76 | HCC-827 | 0.718
77 | LXF-289 | 0.847
78 | NCI-H23 | 0.658
79 | NCI-H647 | 0.333

same assay, conditions: first compound 31.62 µM

Row | Cell Line | relative viability
80 | COR-L23 | 0.513
81 | COR-L 105 | 1.33
82 | LOU-NH91 | 0.947
83 | ChaGo-K-1 | 0.252
84 | NCI-H2170 | 0.98
85 | NCI-H2405 | 0.986
86 | HOP-62 | 0.252
87 | LU99A | 0.436
88 | BEN | 0.336
89 | HARA | 0.912
90 | HCC-78 | 0.584
91 | NCI-H322M | 0.773
92 | LCLC-97TM1 | 0.27
93 | NCI-H2009 | 0.973
94 | A-427 | 0.468
95 | NCI-H441 | 0.361
96 | NCI-H1734 | 0.529
97 | NCI-H460 | 0.463
98 | NCI-H2347 | 0.614
99 | SK-LU-1 | 0.651
100 | NCI-H1395 | 0.608
101 | 201T | 0.973
102 | NCI-H1915 | 1.26
103 | HCC-827 | 0.714
104 | LXF-289 | 0.626
105 | NCI-H23 | 0.893
106 | NCI-H647 | 0.198

same assay, conditions: first compound 100 µM

Row | Cell Line | relative viability
107 | COR-L23 | 0.157
108 | COR-L 105 | 0.91
109 | LOU-NH91 | 0.567
110 | ChaGo-K-1 | 0.203
111 | NCI-H2170 | 0.611
112 | NCI-H2405 | 0.664
113 | HOP-62 | 0.186
114 | LU99A | 0.195
115 | BEN | 0.194
116 | HARA | 0.584
117 | HCC-78 | 0.477
118 | NCI-H322M | 0.647
119 | LCLC-97TM1 | 0.212
120 | NCI-H2009 | 0.373
121 | A-427 | 0.232
122 | NCI-H441 | 0.258
123 | NCI-H1734 | 0.299
124 | NCI-H460 | 0.0513
125 | NCI-H2347 | 0.813
126 | SK-LU-1 | 0.444
127 | NCI-H1395 | 0.445
128 | 201T | 0.32
129 | NCI-H1915 | 0.984
130 | HCC-827 | 0.317
131 | LXF-289 | 0.241
132 | NCI-H23 | 0.854
133 | NCI-H647 | 0.167

compound: O=c1ncccn1[C@@H]1O[C@H](CO)[C@@H](O)[C@H]1O [Zebularine] + CC1(C)CCC(c2ccc(Cl)cc2)=C(CN2CCN(c3ccc(C(=O)NS(=O)(=O)c4ccc(N[C@H](CCN5CCOCC5)CSc5ccccc5)c(S(=O)(=O)C(F)(F)F)c4)cc3)CC2)C1 [Navitoclax] (partner 0.5 µM); test: as above; details: first compound 1 µM
In short: as §1

Row | Cell Line | relative viability
134 | COR-L23 | 1.02
135 | COR-L 105 | 0.642
136 | LOU-NH91 | 0.676
137 | ChaGo-K-1 | 1.18
138 | NCI-H2170 | 0.694
139 | NCI-H2405 | 0.913
140 | HOP-62 | 1.11
141 | LU99A | 0.827
142 | BEN | 0.0641
143 | HARA | 1.14
144 | HCC-78 | 0.811
145 | NCI-H322M | 1.37
146 | LCLC-97TM1 | 0.422
147 | NCI-H2009 | 1.12
148 | A-427 | 0.974
149 | NCI-H441 | 0.815
150 | NCI-H1734 | 0.926
151 | NCI-H460 | 1.26
152 | NCI-H2347 | 0.836
153 | SK-LU-1 | 0.965
154 | NCI-H1395 | 0.99
155 | 201T | 1.21
156 | NCI-H1915 | 0.816
157 | HCC-827 | 0.98
158 | LXF-289 | 1.02
159 | NCI-H23 | 0.775
160 | NCI-H647 | 1.25

same assay, conditions: first compound 3.162 µM

Row | Cell Line | relative viability
161 | COR-L23 | 1.15
162 | COR-L 105 | 0.738
163 | LOU-NH91 | 0.659
164 | ChaGo-K-1 | 0.891
165 | NCI-H2170 | 0.642
166 | NCI-H2405 | 0.831
167 | HOP-62 | 1.01
168 | LU99A | 0.635
169 | BEN | 0.0628
170 | HARA | 1.13
171 | HCC-78 | 0.775
172 | NCI-H322M | 1.19
173 | LCLC-97TM1 | 0.351
174 | NCI-H2009 | 1.13
175 | A-427 | 0.932
176 | NCI-H441 | 0.467
177 | NCI-H1734 | 0.769
178 | NCI-H460 | 1.18
179 | NCI-H2347 | 0.81
180 | SK-LU-1 | 0.868
181 | NCI-H1395 | 1.37
182 | 201T | 1.21
183 | NCI-H1915 | 0.769
184 | HCC-827 | 0.986
185 | LXF-289 | 0.945
186 | NCI-H23 | 0.802
187 | NCI-H647 | 1.06

same assay, conditions: first compound 10 µM

Row | Cell Line | relative viability
188 | COR-L23 | 0.323
189 | COR-L 105 | 0.674
190 | LOU-NH91 | 0.634
191 | ChaGo-K-1 | 0.562
192 | NCI-H2170 | 0.453
193 | NCI-H2405 | 0.798
194 | HOP-62 | 0.424
195 | LU99A | 0.596
196 | BEN | 0.162
197 | HCC-78 | 0.592
198 | NCI-H322M | 1.13
199 | LCLC-97TM1 | 0.238
200 | NCI-H2009 | 0.951
201 | A-427 | 0.563
202 | NCI-H441 | 0.366
203 | NCI-H1734 | 0.513
204 | NCI-H460 | 0.0689
205 | NCI-H2347 | 0.563
206 | SK-LU-1 | 0.435
207 | NCI-H1395 | 0.919
208 | 201T | 0.981
209 | NCI-H1915 | 0.565
210 | HCC-827 | 0.968
211 | LXF-289 | 0.851
212 | NCI-H647 | 0.232

same assay, conditions: first compound 31.62 µM

Row | Cell Line | relative viability
213 | COR-L23 | 0.558
214 | COR-L 105 | 0.768
215 | LOU-NH91 | 0.603
216 | ChaGo-K-1 | 0.538
217 | NCI-H2170 | 0.574
218 | NCI-H2405 | 0.833
219 | HOP-62 | 0.217
220 | LU99A | 0.408
221 | BEN | 0.0748
222 | HARA | 1.1
223 | HCC-78 | 0.497
224 | NCI-H322M | 0.917
225 | LCLC-97TM1 | 0.149
226 | NCI-H2009 | 0.876
227 | A-427 | 0.483
228 | NCI-H441 | 0.368
229 | NCI-H1734 | 0.475
230 | NCI-H460 | 0.413
231 | NCI-H2347 | 0.475
232 | SK-LU-1 | 0.61
233 | NCI-H1395 | 0.629
234 | 201T | 1.19
235 | NCI-H1915 | 0.872
236 | HCC-827 | 0.714
237 | LXF-289 | 0.744
238 | NCI-H23 | 0.818
239 | NCI-H647 | 0.143

same assay, conditions: first compound 100 µM

Row | Cell Line | relative viability
240 | COR-L23 | 0.218
241 | COR-L 105 | 0.747
242 | LOU-NH91 | 0.395
243 | ChaGo-K-1 | 0.292
244 | NCI-H2170 | 0.432
245 | NCI-H2405 | 0.61
246 | HOP-62 | 0.197
247 | LU99A | 0.166
248 | BEN | 0.0383
249 | HARA | 0.718
250 | HCC-78 | 0.22
251 | NCI-H322M | 0.82
252 | LCLC-97TM1 | 0.143
253 | NCI-H2009 | 0.358
254 | A-427 | 0.205
255 | NCI-H441 | 0.245
256 | NCI-H1734 | 0.22
257 | NCI-H460 | 0.0857
258 | NCI-H2347 | 0.369
259 | SK-LU-1 | 0.306
260 | NCI-H1395 | 0.473
261 | 201T | 1.18
262 | NCI-H1915 | 0.771
263 | HCC-827 | 0.418
264 | LXF-289 | 0.226
265 | NCI-H23 | 0.86
266 | NCI-H647 | 0.115
